A short description of series [1]: Quantification of parent compounds and O-demethyl metabolites in rat brain, liver, kidney, serum and urine by UHPLC-HRMS after intraperitoneal injection. It is filed as in vivo, male Sprague-Dawley rats. The note with it: 1 mg/kg i.p.; for concentration at 30 min: 30 min after injection. The protocol: 8 male Sprague-Dawley rats (8 weeks old, weighing between 385 and 425 g) were used as animal models (Janvier Labs, Le Genest-Saint-Isle, France). Animals were housed individually in polypropylene plastic cages under controlled temperature (24 ± 2 °C) and lighting conditions (12 h:12 h; lights ON at 8 AM), with ad libitum access to food and water. Before SCRA injection, animals were handled and habituated to the experimental room for 1 week. All the experiments were approved by the Committee of Ethics and Animal Experimentation of Universitat Jaume I (2019/VSC/PEA/048) and treated throughout according to the European Union Council Directive of June 3rd, 2010 (6106/1/10 REV1).
SCRAs were dosed intraperitoneally at 1 mg/kg. This dose was selected based on similar studies reported in literature. The solution used for injection was prepared at 1 mg/mL in physiological saline solution containing 5% ethanol. Between 385 and 425 µL of that solution were injected depending on animal weight. Blood (serum), liver, brain, and kidney samples were dissected 15, 30, and 180 min after injection (previously anesthetised with CO2 and decapitated immediately). Blood was collected mainly from carotid arteries and jugular veins and kept at room temperature for 30 min to elicit coagulation. Then, blood was centrifuged 10 min at 2000 rcf at 4 °C in order to separate serum from sedimented clot. Liver, kidney, and brain were rapidly dissected and snap-freezing in liquid nitrogen. One animal was used for each dissection time. Additional serum, liver, brain, and kidney samples were obtained from an animal 48 h after being SCRA-dosed, and used as control. Urine samples were collected at 30, 60, 90, 120, 180, 240, 300, and 360 min, together with an additional sample at 24 h (composite urine sample between 360 min and 24 h, collected from animal dissected at 48 h). Urine samples were obtained from the bottom of the cage at the indicated time. Additionally, urine sample collected from one of the animals prior to injection was used as control. Samples were snap-frozen in liquid nitrogen after collection, and preserved at −23 °C until analysis.
Solid samples (brain, liver, and kidney) were crushed with dry ice using an electric grinder. 0.1 g were accurately weighed (±0.1 mg) in 1.5 mL polypropylene tubes, and 0.3 mL of acetonitrile acidified with 1% of formic acid were added for extraction. After that, samples were sonicated for 5 min, followed by 30 min of vortex agitation. Samples were then frozen for 30 min in order to increase protein removal. Finally, they were centrifuged at 12,500 rfc during 15 min, and the supernatant was 10-fold diluted with ultrapure water for UHPLC-HRMS analysis.
Similarly to solid samples, samples were frozen for 30 min, centrifuged at 12,500 rfc for 15 min, and the supernatant 10-fold diluted with ultrapure water for UHPLC-HRMS analysis.
For parent compounds and O-demethyl metabolites estimated quantification, a calibration line in solvent from 2.5 to 250 ng/mL was included in each batch analysis, as well as different quality control samples (QCs) prepared with blank extracts and spiked at 200 ng/mL for evaluating matrix effect and apply a correction factor.
Samples were analysed using an Acquity ultra-performance liquid chromatography (UPLC) system (Waters Corp, Mildford, MA, USA) coupled to a Xevo G2 QTOF (Waters Corp, Manchester, UK) mass spectrometer with quadrupole time-of-flight (QTOF) hybrid mass analyser.
Chromatographic separation was performed using a Cortecs T3 100 ×2.1 mm, 1.6 µm particle size analytical column (Waters Corp, Wexford, Ireland), maintained at 40 °C. […] Injection volume was 50 µL.

Series [2] has as its system pooled human hepatocytes. The following applies: AMB-FUBINACA incubated with pooled human hepatocytes; cited from earlier work.
Where [3] appears, read: 15 min after injection, one sample, estimated concentration, 1 mg/kg.
[4] abbreviates: male, Sprague-Dawley, brain, ip, 1 mg/kg, 15 min after injection, one sample, estimated concentration, read-out: Brain concentration.
Setting [5] is: male, Sprague-Dawley, brain, ip, 1 mg/kg, one sample, estimated concentration, read-out: Brain concentration.
Setting [6] is: male, Sprague-Dawley, brain/serum, ip, read-out: Brain/serum ratio, tissue (ng/g)/serum (ng/mL).
Where [7] appears, read: male, Sprague-Dawley, kidney, ip, 1 mg/kg, 15 min after injection, one sample, estimated concentration, read-out: Kidney concentration.
Where [8] appears, read: male, Sprague-Dawley, kidney, ip, 1 mg/kg, one sample, estimated concentration, read-out: Kidney concentration.
Where [9] appears, read: male, Sprague-Dawley, kidney/serum, ip, read-out: Kidney/serum ratio, tissue (ng/g)/serum (ng/mL).
[10] abbreviates: male, Sprague-Dawley, liver, ip, 1 mg/kg, 15 min after injection, one sample, estimated concentration, read-out: Liver concentration.
[11] abbreviates: male, Sprague-Dawley, liver, ip, 1 mg/kg, one sample, estimated concentration, read-out: Liver concentration.
Where [12] appears, read: male, Sprague-Dawley, liver, ip, 1 mg/kg, 180 min after injection, one sample, estimated concentration, read-out: Liver concentration.
[13] abbreviates: male, Sprague-Dawley, liver/serum, ip, read-out: Liver/serum ratio, tissue (ng/g)/serum (ng/mL).
Setting [14] is: male, Sprague-Dawley, liver/serum, ip, 180 min, read-out: Liver/serum ratio, tissue (ng/g)/serum (ng/mL).
Where [15] appears, read: male, Sprague-Dawley, serum, ip, 1 mg/kg, 15 min after injection, one sample, estimated concentration, read-out: Serum concentration.
The mark [16] stands for this setting: male, Sprague-Dawley, serum, ip, 1 mg/kg, one sample, estimated concentration, read-out: Serum concentration.
The mark [17] stands for this setting: male, Sprague-Dawley, serum, ip, 1 mg/kg, 180 min after injection, one sample, estimated concentration, read-out: Serum concentration.
Where [18] appears, read: male, Sprague-Dawley, kidney, ip, 1 mg/kg, 180 min after injection, one sample, estimated concentration, read-out: Kidney concentration.
[19] abbreviates: 48 h after injection, one sample, estimated concentration, 1 mg/kg.

Molecules are shown by their SMILES. “Also recorded” adds a separate entry of the source. Like-named read-outs stand apart in the source and are kept apart here.

Turning to `COC(=O)C(NC(=O)c1cn(CC2CCCCC2)c2ccccc12)C(C)C` (stereo not drawn) [AMB-CHMICA], the Brain concentration in series [1] (setting [3]) was 21.3 ng/g. In addition, in series [1] (180 min after injection, one sample, estimated concentration, 1 mg/kg), the Liver concentration is listed as 4.64 ng/g. For the same compound, the concentration at 15 min was 21 ng/g in series [1] (setting [4]), 36.5 ng/g in series [1] (setting [7]), 846 ng/g in series [1] (setting [10]) and 45.1 ng/mL in series [1] (setting [15]). Further, the concentration at 30 min in series [1] (setting [5]) is 20.7 ng/g; in series [1] (setting [8]), 66 ng/g; in series [1] (setting [11]) it was 874 ng/g; in series [1] (setting [16]), 65.9 ng/mL. In addition, the Kp at 15 min was found to be 0.47 in series [1] (setting [6]), 0.81 in series [1] (setting [9]) and 18.8 in series [1] (setting [13]). The Kp at 30 min in series [1] (setting [6]) amounted to 0.31; in series [1] (setting [9]), 1; in series [1] (setting [13]), 13.3. In addition, the concentration at 180 min in series [1] (setting [12]) was below 5 ng/g; in series [1] (setting [17]), 3.93 ng/mL. The Kp at 180 min in series [1] (setting [14]) was determined as 1.18.
For the compound `COC(=O)C(NC(=O)c1nn(Cc2ccc(F)cc2)c2ccccc12)C(C)C` (stereo not drawn) [AMB-FUBINACA], the Brain concentration in series [1] (setting [3]) is 57.2 ng/g. In addition, the Liver concentration in series [1] (setting [3]) is listed as 7.25 ng/g; in series [1] (180 min after injection, one sample, estimated concentration) it was “no longer detected”. The “Blood-brain barrier permeability compared by brain/serum concentration ratio” value in series [1] (at measured time points, versus AMB-CHMICA, 1 mg/kg) is reported as “higher permeability than AMB-CHMICA (up to ten times); also recorded: around ten-fold more permeable than AMB-CHMICA”. Further, the concentration at 15 min is 57 ng/g in series [1] (setting [4]), 42.6 ng/g in series [1] (setting [7]), 7 ng/g in series [1] (setting [10]) and 13 ng/mL in series [1] (setting [15]). Moreover, the concentration at 30 min in series [1] (setting [5]) is 18.4 ng/g; in series [1] (setting [8]), 16.4 ng/g; in series [1] (setting [11]), 4.59 ng/g; in series [1] (setting [16]), 3.03 ng/mL. In addition, the concentration at 180 min was 2.64 ng/g in series [1] (male, Sprague-Dawley, brain, ip, 1 mg/kg, 180 min after injection, one sample, estimated concentration, read-out: Brain concentration) and 3.36 ng/g in series [1] (setting [18]). Further, the Kp at 15 min in series [1] (setting [6]) came to 4.38; in series [1] (setting [9]) it was 3.27; in series [1] (setting [13]), 0.56. Also, the Kp at 30 min turned out to be 6.05 in series [1] (setting [6]), 5.42 in series [1] (setting [9]) and 1.52 in series [1] (setting [13]).
As to `CC(C)C(NC(=O)c1nn(Cc2ccc(F)cc2)c2ccccc12)C(=O)O` (stereo not drawn) [O-demethyl AMB-FUBINACA], the “Incubation time after which the O-demethyl metabolite was the major compound in incubation media” value in series [2] is 2 to 3 min. Moreover, the Liver concentration was 111 ng/g in series [1] (setting [3]) and 31.49 ng/g in series [1] (setting [19]). In addition, the Serum concentration in series [1] (setting [3]) is 24.9 ng/mL; in series [1] (setting [19]) it was 5.72 ng/mL. In addition, in series [1] (24 h (composite urine 360 min to 24 h)), the Urine concentration amounted to 7.33 ng/mL. The concentration at 30 min in series [1] (setting [5]) was 3.83 ng/g; in series [1] (setting [8]), 27.4 ng/g; in series [1] (setting [11]), 356 ng/g; in series [1] (setting [16]) it was 76.8 ng/mL. In addition, the values for the Kp at 30 min in series [1] (setting [6]), in series [1] (setting [9]) and in series [1] (setting [13]) were 0.05, 0.36 and 4.63, respectively. Also, the concentration at 15 min is 12.5 ng/g in series [1] (setting [7]), 110 ng/g in series [1] (setting [10]) and 25 ng/mL in series [1] (setting [15]). The concentration at 180 min in series [1] (setting [18]) is 43.7 ng/g; in series [1] (setting [12]), 265 ng/g; in series [1] (setting [17]) it was 136 ng/mL; in series [1] (male, Sprague-Dawley, urine, ip, 1 mg/kg, 180 min, read-out: Urine concentration) it was 5.78 ng/mL. In addition, the Kp at 15 min in series [1] (setting [9]) was determined as 0.5; in series [1] (setting [13]) it was 4.47. Further, the Kp at 180 min in series [1] (male, Sprague-Dawley, kidney/serum, ip, 180 min, read-out: Kidney/serum ratio, tissue (ng/g)/serum (ng/mL)) was 0.32; in series [1] (setting [14]), 1.94. Besides, the concentration at 48 h in series [1] (male, Sprague-Dawley, liver, ip, 1 mg/kg, 48 h after injection, one sample, estimated concentration, read-out: Liver concentration) is 31 ng/g; in series [1] (male, Sprague-Dawley, serum, ip, 1 mg/kg, 48 h after injection, one sample, estimated concentration, read-out: Serum concentration), 6 ng/mL. Moreover, in series [1] (male, Sprague-Dawley, urine, ip, 1 mg/kg, 300 min), the concentration at 300 min was determined as 1.13 ng/mL.

The values above are taken from publication PMC8873228, “In-depth comparison of the metabolic and pharmacokinetic behaviour of the structurally related synthetic cannabinoids AMB-FUBINACA and AMB-CHMICA in rats” (Communications Biology, 2022).
